One data set concerns SARS-CoV-2 USA-WA1/2020. As to the kind of experiment: SARS-CoV-2 CPE assay, Vero E6 (Method 2). The conditions noted are these: Severe acute respiratory syndrome coronavirus 2, Vero C1008, 2% FBS. It counts as cell-based.
Data set [1] is described as follows: Cytotoxicity, MTT assay in uninfected A549. It counts as cell-based. The conditions noted are these: human, uninfected A549 cells, with Influenza A IF assay, not converted. A general note: Tetrazolium assays rely on reduction of a dye to a coloured formazan, in cell work by metabolically active cells.

In the data set with SARS-CoV-2 USA-WA1/2020, `Cc1c(-c2ccc(O)cc2)n(Cc2ccc(OCCN3CCCCC3)cc2)c2ccc(O)cc12` [Pipendoxifene] showed a half-maximal effective concentration (EC50) of 0.52 µM. The CC50 at 24 h in data set [1] was 13.7 µM.

The EC50 is the concentration at which the effect is half-maximal. One may read the CC50 as the concentration giving 50% cytotoxicity. Lower therefore signals harm at low concentration.
